Reference: US20060128792A1, “Deguelin as a chemopreventive agent for lung cancer” (priority 2002, published 2006)
Several values for one entry are separate records, joined by “and”; a condition that tells them apart may be missing. Identical values can stand only once.

Key:
Assay in all cases: MTT assay, growth inhibition by deguelin or deguelin derivatives
Type in all cases: cell-based
Details in all cases: 3 days
H1299 = test system: H1299
H596 = test system: H596
H460 = test system: H460
H358 = test system: H358
A549 = test system: A549
H322 = test system: H322

SMILES: C=C(C)[C@H]1Cc2c(ccc3c(=O)c4c(oc23)COc2cc(OC)c(OC)cc2-4)O1 [6a,2a-dehydrorotenone]
- % control (H1299; H1299, 0.01 μM): 0.99%
- MTT assay reading, Average (H1299; H1299, 0.01 μM): 1.5514
- MTT assay reading, individual replicate (H1299; H1299, 0.01 μM): 1.562 and 1.561 and 1.559 and 1.63 and 1.515 and 1.517 and 1.516
- % control (H1299; H1299, 0.1 μM): 0.89%
- MTT assay reading, Average (H1299; H1299, 0.1 μM): 1.3907
- MTT assay reading, individual replicate (H1299; H1299, 0.1 μM): 1.39 and 1.308 and 1.385 and 1.539 and 1.281 and 1.351 and 1.481
- % control (H1299; H1299, 0.5 μM): 0.95%
- MTT assay reading, Average (H1299; H1299, 0.5 μM): 1.4937
- MTT assay reading, individual replicate (H1299; H1299, 0.5 μM): 1.544 and 1.561 and 1.338 and 1.502 and 1.595 and 1.413 and 1.503
- % control (H1299; H1299, 1 μM): 0.89%
- MTT assay reading, Average (H1299; H1299, 1 μM): 1.3961
- MTT assay reading, individual replicate (H1299; H1299, 1 μM): 1.452 and 1.321 and 1.233 and 1.57 and 1.421 and 1.33 and 1.446
- MTT assay reading, Average (H596; H596, 0.01 μM): 1.6089
- MTT assay reading, individual replicate (H596; H596, 0.01 μM): 1.581 and 1.597 and 1.651 and 1.605 and 1.631 and 1.617 and 1.58
- MTT assay reading, Average (H596; H596, 0.1 μM): 1.399
- MTT assay reading, individual replicate (H596; H596, 0.1 μM): 1.347 and 1.381 and 1.333 and 1.513 and 1.417 and 1.34 and 1.462
- MTT assay reading, Average (H596; H596, 0.5 μM): 1.4016
- MTT assay reading, individual replicate (H596; H596, 0.5 μM): 1.343 and 1.467 and 1.312 and 1.463 and 1.351 and 1.399 and 1.476
- MTT assay reading, Average (H596; H596, 1 μM): 1.3214
- MTT assay reading, individual replicate (H596; H596, 1 μM): 1.234 and 1.257 and 1.341 and 1.494 and 1.326 and 1.319 and 1.279
- % control (H460; H460, 0.01 μM): 0.96%
- MTT assay reading, Average (H460; H460, 0.01 μM): 1.6774
- MTT assay reading, individual replicate (H460; H460, 0.01 μM): 1.625 and 1.563 and 1.731 and 1.89 and 1.443 and 1.675 and 1.815
- % control (H460; H460, 0.1 μM): 0.78%
- MTT assay reading, Average (H460; H460, 0.1 μM): 1.3666
- MTT assay reading, individual replicate (H460; H460, 0.1 μM): 1.314 (2×) and 1.333 and 1.204 and 1.501 and 1.379 and 1.521
- % control (H460; H460, 0.5 μM): 0.85%
- MTT assay reading, Average (H460; H460, 0.5 μM): 1.49
- MTT assay reading, individual replicate (H460; H460, 0.5 μM): 1.31 and 1.421 and 1.538 and 1.504 and 1.55 and 1.534 and 1.573
- % control (H460; H460, 1 μM): 0.79%
- MTT assay reading, Average (H460; H460, 1 μM): 1.382
- MTT assay reading, individual replicate (H460; H460, 1 μM): 1.253 and 1.353 and 1.351 and 1.347 and 1.429 and 1.319 and 1.622
- MTT assay reading, Average (H358; H358, 0.01 μM): 0.8861
- MTT assay reading, individual replicate (H358; H358, 0.01 μM): 0.784 and 0.734 and 0.786 and 0.686 and 0.95 and 1.192 and 1.071
- MTT assay reading, Average (H358; H358, 0.1 μM): 0.7511
- MTT assay reading, individual replicate (H358; H358, 0.1 μM): 0.602 and 0.652 and 0.603 and 0.672 and 0.792 and 0.778 and 1.159
- MTT assay reading, Average (H358; H358, 0.5 μM): 0.6756
- MTT assay reading, individual replicate (H358; H358, 0.5 μM): 0.533 and 0.604 and 0.6 and 0.736 and 0.633 and 0.734 and 0.889
- MTT assay reading, Average (H358; H358, 1 μM): 0.684
- MTT assay reading, individual replicate (H358; H358, 1 μM): 0.686 and 0.624 and 0.639 and 0.64 and 0.667 and 0.752 and 0.78
- MTT assay reading, Average (A549; A549, 0.01 μM): 1.7067
- MTT assay reading, individual replicate (A549; A549, 0.01 μM): 1.69 (2×) and 1.705 and 1.541 and 1.829 and 1.786 and 1.706
- MTT assay reading, Average (A549; A549, 0.1 μM): 1.4161
- MTT assay reading, individual replicate (A549; A549, 0.1 μM): 0.691 and 1.805 and 1.719 and 1.454 and 1.375 (2×) and 1.494
- MTT assay reading, Average (A549; A549, 0.5 μM): 1.4871
- MTT assay reading, individual replicate (A549; A549, 0.5 μM): 1.531 and 1.925 and 1.594 and 1.387 and 1.359 and 1.356 and 1.258
- MTT assay reading, Average (A549; A549, 1 μM): 1.4281
- MTT assay reading, individual replicate (A549; A549, 1 μM): 1.544 and 1.458 and 1.375 and 1.486 and 1.428 and 1.464 and 1.242
- MTT assay reading, Average (H322; H322, 0.01 μM): 0.969
- MTT assay reading, individual replicate (H322; H322, 0.01 μM): 0.795 and 0.799 and 0.893 and 0.989 and 1.014 and 1.101 and 1.192
- MTT assay reading, Average (H322; H322, 0.1 μM): 0.8656
- MTT assay reading, individual replicate (H322; H322, 0.1 μM): 0.865 and 0.771 and 0.799 and 0.872 and 0.866 and 0.909 and 0.977
- MTT assay reading, Average (H322; H322, 0.5 μM): 0.828
- MTT assay reading, individual replicate (H322; H322, 0.5 μM): 0.736 and 0.809 and 0.833 and 0.746 and 0.89 and 0.958 and 0.824
- MTT assay reading, Average (H322; H322, 1 μM): 0.7213
- MTT assay reading, individual replicate (H322; H322, 1 μM): 0.677 and 0.658 and 0.692 and 0.681 and 0.68 and 0.859 and 0.802

SMILES: COc1cc2c(cc1OC)-c1c(oc3c4c(ccc3c1=O)OC(C)(C)C=C4)CO2 [7a,13a-dehydrodeguelin]
- % control (H1299; H1299, 0.01 μM): 0.93%
- MTT assay reading, Average (H1299; H1299, 0.01 μM): 1.3179
- MTT assay reading, individual replicate (H1299; H1299, 0.01 μM): 1.311 and 1.344 and 1.402 and 1.302 and 1.286 and 1.293 and 1.287
- % control (H1299; H1299, 0.1 μM): 0.87%
- MTT assay reading, Average (H1299; H1299, 0.1 μM): 1.2374
- MTT assay reading, individual replicate (H1299; H1299, 0.1 μM): 1.228 and 1.331 and 1.318 and 1.141 and 1.196 and 1.153 and 1.295
- % control (H1299; H1299, 0.5 μM): 0.69%
- MTT assay reading, Average (H1299; H1299, 0.5 μM): 0.9707
- MTT assay reading, individual replicate (H1299; H1299, 0.5 μM): 1.033 and 1.017 and 1.106 and 0.913 and 0.874 and 0.947 and 0.905
- % control (H1299; H1299, 1 μM): 0.60%
- MTT assay reading, Average (H1299; H1299, 1 μM): 0.8452
- MTT assay reading, individual replicate (H1299; H1299, 1 μM): 0.769 and 0.838 and 0.938 and 0.813 and 0.837 and 0.876
- MTT assay reading, Average (H596; H596, 0.01 μM): 1.4338
- MTT assay reading, individual replicate (H596; H596, 0.01 μM): 1.408 and 1.317 and 1.526 and 1.458 and 1.495 and 1.399
- MTT assay reading, Average (H596; H596, 0.1 μM): 1.2779
- MTT assay reading, individual replicate (H596; H596, 0.1 μM): 1.356 and 1.281 and 1.153 and 1.273 and 1.246 and 1.358 and 1.278
- MTT assay reading, Average (H596; H596, 0.5 μM): 1.2116
- MTT assay reading, individual replicate (H596; H596, 0.5 μM): 1.19 and 1.194 and 1.071 and 1.133 and 1.285 and 1.365 and 1.243
- MTT assay reading, Average (H596; H596, 1 μM): 1.0616
- MTT assay reading, individual replicate (H596; H596, 1 μM): 1.202 and 1.183 and 1.019 and 1.159 and 1.07 and 0.899 (2×)
- % control (H460; H460, 0.01 μM): 0.86%
- MTT assay reading, Average (H460; H460, 0.01 μM): 1.4779
- MTT assay reading, individual replicate (H460; H460, 0.01 μM): 1.531 and 1.338 and 1.635 and 1.354 and 1.477 and 1.476 and 1.534
- % control (H460; H460, 0.1 μM): 0.88%
- MTT assay reading, Average (H460; H460, 0.1 μM): 1.5079
- MTT assay reading, individual replicate (H460; H460, 0.1 μM): 1.473 and 1.427 and 1.518 and 1.504 and 1.524 and 1.575 and 1.534
- % control (H460; H460, 0.5 μM): 0.78%
- MTT assay reading, Average (H460; H460, 0.5 μM): 1.3309
- MTT assay reading, individual replicate (H460; H460, 0.5 μM): 1.297 and 1.323 and 1.388 and 1.304 and 1.362 and 1.335 and 1.307
- % control (H460; H460, 1 μM): 0.64%
- MTT assay reading, Average (H460; H460, 1 μM): 1.1053
- MTT assay reading, individual replicate (H460; H460, 1 μM): 1.191 and 1.216 and 1.047 and 1.094 and 0.946 and 1.108 and 1.135
- MTT assay reading, Average (H358; H358, 0.01 μM): 0.7673
- MTT assay reading, individual replicate (H358; H358, 0.01 μM): 0.79 and 0.678 and 0.647 and 0.812 and 0.791 and 0.864 and 0.789
- MTT assay reading, Average (H358; H358, 0.1 μM): 0.769
- MTT assay reading, individual replicate (H358; H358, 0.1 μM): 0.726 and 0.676 and 0.824 and 0.846 and 0.782 and 0.658 and 0.871
- MTT assay reading, Average (H358; H358, 0.5 μM): 0.719
- MTT assay reading, individual replicate (H358; H358, 0.5 μM): 0.684 and 0.6 and 0.66 and 0.739 and 0.819 and 0.753 and 0.778
- MTT assay reading, Average (H358; H358, 1 μM): 0.6534
- MTT assay reading, individual replicate (H358; H358, 1 μM): 0.691 and 0.548 and 0.643 and 0.706 and 0.647 and 0.656 and 0.683
- MTT assay reading, Average (A549; A549, 0.01 μM): 1.2597
- MTT assay reading, individual replicate (A549; A549, 0.01 μM): 1.182 and 1.147 and 1.307 and 1.208 and 1.279 and 1.361 and 1.334
- MTT assay reading, Average (A549; A549, 0.1 μM): 1.1816
- MTT assay reading, individual replicate (A549; A549, 0.1 μM): 1.073 and 1.17 and 1.208 and 1.308 and 1.211 and 1.152 and 1.149
- MTT assay reading, Average (A549; A549, 0.5 μM): 1.0421
- MTT assay reading, individual replicate (A549; A549, 0.5 μM): 1.107 and 1.032 and 0.931 and 0.964 and 1.036 and 1.104 and 1.121
- MTT assay reading, Average (A549; A549, 1 μM): 0.9223
- MTT assay reading, individual replicate (A549; A549, 1 μM): 0.97 and 0.971 and 1.014 and 0.89 and 0.862 and 0.886 and 0.863
- MTT assay reading, Average (H322; H322, 0.01 μM): 1.0041
- MTT assay reading, individual replicate (H322; H322, 0.01 μM): 0.921 and 1.08 and 1.05 and 1.022 and 0.888 and 0.926 and 1.142
- MTT assay reading, Average (H322; H322, 0.1 μM): 1.0019
- MTT assay reading, individual replicate (H322; H322, 0.1 μM): 1.04 and 1.033 and 0.923 and 1.031 and 1.09 and 0.883 and 1.013
- MTT assay reading, Average (H322; H322, 0.5 μM): 0.866
- MTT assay reading, individual replicate (H322; H322, 0.5 μM): 0.837 and 0.8 and 0.975 and 0.926 and 0.806 and 0.811 and 0.907
- MTT assay reading, Average (H322; H322, 1 μM): 0.8379
- MTT assay reading, individual replicate (H322; H322, 1 μM): 0.841 and 0.799 and 0.822 and 0.932 and 0.793 and 0.709 and 0.969
